Columns and labels:
[1] = Oral glucose tolerance test (OGTT); format: in vivo, mice
Method: (§1) At the beginning of the experiment, the mice were divided randomly into control mice (Group 1, n=8), HFD group (Group 2, n=8), HFD+DHB group (Group 3, n=8) and NC+DHB group (Group 4, n=8). The dosage of DHB supplementation is 1.5 mg/kg. The group 1 is the control group and is given the normal chow; the group 2 is the high-fat mouse and continue high fat diet for 8 weeks; the group 3 also continued to eat a high-fat diet and received daily intragastric administration of sample for 8 weeks; the group 4 is given the normal chow and received daily intragastric administration of sample for 8 weeks. Record the body fat and weight of each group of mice every week. Complete Oral glucose tolerance test (OGTT)/Insulin intraperitoneal tolerance test (IPTT) on the last day of week 8, then execute the mice and take serum −80 °C for storage.
(§2) Measurement of Blood Glucose: Oral glucose tolerance test (OGTT): At week 16th of the experiment, after fasting for 15 h, Glucose was given […] (2 g/kg), and blood Glucose was measured at 0, 15, 30, 60, 90, 120 mins. Insulin intraperitoneal tolerance test (IPTT): At week 16th of the experiment, after fasting for 15h, insulin (1U/kg) was injected intraperitoneally and blood glucose was measured at 0, 15, 30, 60, 90, 120 mins.

[2] = Serum lipids (TC, TG, LDL, HDL) by ELISA; format: in vivo, mice
Method: as §1
(§3) Serum detection by ELISA: At week 8th of the experiment, the whole blood is extracted by removing the eyeball. The serum was acquired after centrifugation (10000 rpm 15 mins), stored at −80 °C for later use. Determinate the concentration of insulin (INS), cholesterol (TC), triglycerides (TG), LDL (low density lipoprotein), HDL (high density lipoprotein), GLP-1 in serum by ELISA kits.

[3] = Fasting blood glucose in another 14-week mice experiment; format: in vivo; details: 35 mg/kg, at week 13
[4] = Acute intervention study on appetite measures in human; format: in vivo; details: single 200 mg dose
GLP-1 [5] = assay: GLP-1 in another 14-week mice experiment; format: in vivo; details: 35 mg/kg, at week 14
GLP-1 [6] = assay: Serum GLP-1 by ELISA; format: in vivo, mice; details: 1.5 mg/kg; result in words
Method: as §1, §3

[7] = Body weight in another 14-week mice experiment; format: in vivo; details: 35 mg/kg
[8] = Insulin intraperitoneal tolerance test (IPTT); format: in vivo, mice
Method: as §1, §2

insulin (INS) = assay: Serum insulin (INS) by ELISA; format: in vivo, mice; details: 1.5 mg/kg; result in words
Method: as §1, §3

[9] = Change of body weight, 8-week mouse study; format: in vivo, mice; details: for body weight: DHB 1.5 mg/kg daily intragastric
Method: as §1
Change of body weight: Weigh once a week at a fixed time from beginning of the experiment.

Weight of the fat pad = format: in vivo, mice; details: 1.5 mg/kg; result in words
Method: as §1
Weight of the fat pad: At the 17th week, the mice were sacrificed, and the fat pads (subcutaneous, epididymis and perirenal) were dissected, photographed and weighed.

[10] = Body composition analysis (fat content), 8-week mouse study; format: in vivo, mice; details: 1.5 mg/kg daily intragastric, 8 weeks
Method: as §1
Body composition analysis: During the experiment, the fat mass and lean mass was measured by Nuclear Magnetic Resonance Body Composition Analyzer once a week.

[11] = HFD+DHB group, 1.5 mg/kg daily intragastric, 8 weeks
[12] = NC+DHB group, 1.5 mg/kg daily intragastric, 8 weeks

## COc1ccc2c(c1OC)CN1CCc3cc4c(cc3C1=C2)OCO4 [DHB, dihydroberberine]
[1]; 1.5 mg/kg, result in words
  blood glucose tolerance relative to mice without DHB supplementation: improve the blood glucose and insulin tolerance
[1]; HFD+DHB group (Group 3), 1.5 mg/kg daily intragastric, glucose 2 g/kg, 0-120 mins
  decrease of AUC of OGTT compared with HFD group: approximately 19%
[1]; NC+DHB group (Group 4), 1.5 mg/kg daily intragastric, glucose 2 g/kg, 0-120 mins
  decrease of AUC of OGTT compared with control mice: approximately 10%
[2]; 1.5 mg/kg, result in words
  serum HDL relative to mice without DHB supplementation: significantly increase
  serum LDL relative to mice without DHB supplementation: decrease
  serum TC relative to mice without DHB supplementation: decrease
  serum TG relative to mice without DHB supplementation: decrease
[2]; [11]
  decrease of LDL compared with HFD group: 32.3%
  increase in serum HDL compared with HFD group: 19%
  increase of ratio of HDL/LDL compared with HFD group: 76%
  reduction in serum TG compared with HFD group: 26.1%
  reduction of blood TC compared with HFD group: 20.6%
[2]; [12]
  decrease of LDL compared with NC group: 18.3%
  increase in serum HDL compared with NC group: 8.8%
  increase of ratio of HDL/LDL compared with NC group: 33%
  reduction in serum TG compared with NC group: 13.2%
  reduction of blood TC compared with NC group: 9.8%
[3]
  decrease of fasting blood glucose compared with untreated control group (HFD group): about 16%
[4]
  subjective appetite: decreases subjective appetite
[4]; vs placebo
  composite appetite score: beat placebo
  desire to eat: beat placebo
  fullness: beat placebo
  hunger: beat placebo
  prospective food consumption: beat placebo
GLP-1 [5]
  increase of GLP-1 compared with untreated control group (HFD): 165%
GLP-1 [6]
  serum GLP-1 relative to mice without DHB supplementation: significantly increase
[7]; 14-week mice experiment, result in words
  benefits over time: Benefits intensified over time rather than plateauing
[7]; by week 7
  weight loss compared with untreated control group (HFD group): about 15%
[7]; by week 13
  weight loss compared with untreated control group (HFD group): about 33%
[8]; 1.5 mg/kg, result in words
  insulin tolerance relative to mice without DHB supplementation: improve the blood glucose and insulin tolerance
[8]; HFD+DHB group (Group 3), 1.5 mg/kg daily intragastric, insulin 1U/kg i.p., 0-120 mins
  decrease of AUC of IPTT compared with HFD group: about 27%
[8]; NC+DHB group (Group 4), 1.5 mg/kg daily intragastric, insulin 1U/kg i.p., 0-120 mins
  decrease of AUC of IPTT compared with control mice: approximately 21%
Insulin (INS)
  serum INS relative to mice without DHB supplementation: decrease
[9]; DHB groups, 1.5 mg/kg, 8 weeks, result in words
  body weight curve: helpful in inhibiting high fat induced obesity
[9]; [11]
  decrease of body weight compared with HFD group: 9.84%
[9]; HFD+DHB group, 8 weeks, HFD group 37 g
  body weight: 33.36 g
[9]; NC+DHB group, 1.5 mg/kg daily intragastric, at the 8th week
  decrease of body weight compared with NC group: 7.75%
[9]; NC+DHB group, 8 weeks, NC group 33.96 g
  body weight: 31.33 g
Weight of the fat pad
  pararenal fat pad weight relative to mice without DHB supplementation: significantly increase
[10]; HFD+DHB group (Group 3)
  decrease of fat content compared with HFD group: approximately 19%
[10]; NC+DHB group (Group 4)
  decrease of fat content compared with control mice: ~35%
